The text below walks through data of patent publication US12492186B2, “Bicyclic heterocyclic compounds useful as IRAK4 inhibitors” (BRISTOL-MYERS SQUIBB COMPANY, priority 2019, dated 2025).

The target in the experiment is IRAK4 (Homo sapiens (Human), UniProt Q9NWZ3). The experiment in a line: IRAK4 Inhibition Assay. It is filed as biochemical. The settings on record: ATP 500 μM; IRAK4 0.6 nM; 60 min room temperature; Caliper LABCHIP 3000. As for the experimental part: The assays were performed in U-bottom 384-well plates. The final assay volume was 30 μL prepared from 15 μL additions of enzyme and substrates (fluoresceinated peptide and ATP) and test compounds in assay buffer (20 mM HEPES pH 7.2, 10 mM MgCl2, 0.015% Brij 35 and 4 mM DTT). The reaction was initiated by the combination of IRAK4 with substrates and test compounds. The reaction mixture was incubated at room temperature for 60 min. and terminated by adding 45 μL of 35 mM EDTA to each sample. The reaction mixture was analyzed on the Caliper LABCHIP® 3000 (Caliper, Hopkinton, MA) by electrophoretic separation of the fluorescent substrate and phosphorylated product. Inhibition data were calculated by comparison to no enzyme control reactions for 100% inhibition and vehicle-only reactions for 0% inhibition. The final concentrations of reagents in the assays are ATP, 500 μM; FL-IPTSPITTTYFFFKKK peptide 1.5 μM; IRAK4, 0.6 nM; and DMSO, 1.6%.
Chain of IRAK4 (Q9NWZ3 whole entry, species assumed): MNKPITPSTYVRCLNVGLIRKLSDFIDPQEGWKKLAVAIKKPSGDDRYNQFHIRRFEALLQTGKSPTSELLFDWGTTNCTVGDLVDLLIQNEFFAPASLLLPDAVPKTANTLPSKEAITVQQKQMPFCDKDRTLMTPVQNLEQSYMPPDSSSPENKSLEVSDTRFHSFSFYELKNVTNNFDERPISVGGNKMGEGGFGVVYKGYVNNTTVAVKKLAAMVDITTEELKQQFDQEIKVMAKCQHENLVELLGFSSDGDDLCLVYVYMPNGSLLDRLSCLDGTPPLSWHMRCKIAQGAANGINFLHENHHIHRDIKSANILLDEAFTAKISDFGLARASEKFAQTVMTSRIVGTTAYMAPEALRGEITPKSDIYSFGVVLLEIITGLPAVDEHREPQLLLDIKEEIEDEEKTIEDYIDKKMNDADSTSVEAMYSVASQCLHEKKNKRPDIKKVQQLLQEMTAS
As for `CC(C)Nc1c(C(=O)NC[C@@H](F)C(C)(C)O)cnc2ccc(-c3ccncc3)cc12` [Example 2, (R)—N-(2-fluoro-3-hydroxy-3-methylbutyl)-4-(isopropylamino)-6-(pyridin-4-yl)quinoline-3-carboxamide], the IC50 (commonly the midpoint of a concentration-inhibition curve) was 25.9 nM. With `CC(C)Nc1c(C(=O)NCC2(C)NC(=O)NC2=O)cnc2ccc(-c3cn[nH]c3)cc12` (centres unmarked) [Example 105, 4-(isopropylamino)-N-((4-methyl-2,5-dioxoimidazolidin-4-yl)methyl)-6-(1H-pyrazol-4-yl)quinoline-3-carboxamide] the figure was 338 nM. On to `O=C(NCCC1CC1)c1cnc2ccc(-c3cn[nH]c3)cc2c1NC1CC(F)(F)C1` [Example 56, N-(2-cyclopropylethyl)-4-((3,3-difluorocyclobutyl)amino)-6-(1H-pyrazol-4-yl)quinoline-3-carboxamide], for which the IC50 was determined as 19.7 nM. Take `CC(C)(O)[C@H](F)CNC(=O)c1cnc2ccc(-c3cncs3)cc2c1Nc1cnn(CC(F)F)c1` [Example 31, (R)-4-((1-(2,2-difluoroethyl)-1H-pyrazol-4-yl)amino)-N-(2-fluoro-3-hydroxy-3-methylbutyl)-6-(thiazol-5-yl)quinoline-3-carboxamide]: the IC50 is 430 nM. With `CC(C)Nc1c(C(=O)NCCC(C)(C)O)cnc2ccc(-c3ccncc3)nc12` [Example 145, N-(3-hydroxy-3-methylbutyl)-4-(isopropylamino)-6-(pyridin-4-yl)-1,5-naphthyridine-3-carboxamide], the IC50 was determined as 24.2 nM. As for `CC(C)Nc1c(C(=O)NCC2(CO)COC2)cnc2ccc(-c3cn[nH]c3)cc12` [Example 20, N-((3-(hydroxymethyl)oxetan-3-yl)methyl)-4-(isopropylamino)-6-(1H-pyrazol-4-yl)quinoline-3-carboxamide], the IC50 turned out to be 48.9 nM. Turning to `O=C(NCCC(F)(F)F)c1cnc2ccc(-c3cn[nH]c3)cc2c1NC1CC(F)(F)C1` [Example 55, 4-((3,3-difluorocyclobutyl)amino)-6-(1H-pyrazol-4-yl)-N-(3,3,3-trifluoropropyl)quinoline-3-carboxamide], the IC50 amounted to 53.1 nM. Regarding `CC(=O)N1CCCC1CCNC(=O)c1cnc2ccc(-c3cn[nH]c3)cc2c1NC(C)C` (centres unmarked) [Example 85, N-(2-(1-acetylpyrrolidin-2-yl)ethyl)-4-(isopropylamino)-6-(1H-pyrazol-4-yl) quinoline-3-carboxamide], the IC50 turned out to be 20.7 nM. The figure for `O=C(NCC1CCS(=O)(=O)CC1)c1cnc2ccc(-c3cn[nH]c3)cc2c1NC1CC1` [Example 116, 4-(cyclopropylamino)-N-((1,1-dioxidotetrahydro-2H-thiopyran-4-yl)methyl)-6-(1H-pyrazol-4-yl)quinoline-3-carboxamide] is 43.7 nM. On to `CC(C)Nc1c(C(=O)NC[C@@H](F)C(C)(C)O)cnc2ccc(-c3cncc(C#N)c3)cc12` [Example 4, (R)-6-(5-cyanopyridin-3-yl)-N-(2-fluoro-3-hydroxy-3-methylbutyl)-4-(isopropylamino)quinoline-3-carboxamide], for which the IC50 worked out at 296 nM.

Regarding `CC(C)Nc1c(C(=O)NCCC(C)(C)O)cnc2ccc(-c3cncc(F)c3)cc12` [Example 72, 6-(5-fluoropyridin-3-yl)-N-(3-hydroxy-3-methylbutyl)-4-(isopropylamino)quinoline-3-carboxamide], the IC50 worked out at 176 nM. The figure for `CC(C)Nc1c(C(=O)NCCC(C)(C)O)cnc2ccc(-c3ccc(=O)[nH]c3)cc12` [Example 74, N-(3-hydroxy-3-methylbutyl)-4-(isopropylamino)-6-(6-oxo-1,6-dihydropyridin-3-yl)quinoline-3-carboxamide] is 124 nM; for `CC(=O)N[C@H]1CC[C@H](NC(=O)c2cnc3ccc(-c4cncc(C#N)c4)nc3c2NC(C)C)CC1` [Example 154, N-((1r,4r)-4-acetamidocyclohexyl)-6-(5-cyanopyridin-3-yl)-4-(isopropylamino)-1,5-naphthyridine-3-carboxamide] it is 92.7 nM. On to `CC(C)Nc1c(C(=O)NC[C@@H](F)C(C)(C)O)cnc2ncc(-c3cn[nH]c3)cc12` [Example 161, (R)—N-(2-fluoro-3-hydroxy-3-methylbutyl)-4-(isopropylamino)-6-(1H-pyrazol-4-yl)-1,8-naphthyridine-3-carboxamide], for which the IC50 turned out to be 1210 nM.

Turning to `CC(C)Nc1c(C(=O)NC(CCO)C2CC2)cnc2ccc(-c3cn[nH]c3)cc12` (centres unmarked) [Example 12, N-(1-cyclopropyl-3-hydroxypropyl)-4-(isopropylamino)-6-(1H-pyrazol-4-yl)quinoline-3-carboxamide], the IC50 came to 295 nM. Take `CC(C)Nc1c(C(=O)NCCC2CC2)cnc2ccc(Nc3cncc(F)c3)nc12` [Example 147, N-(2-cyclopropylethyl)-6-((5-fluoropyridin-3-yl)amino)-4-(isopropylamino)-1,5-naphthyridine-3-carboxamide]: the IC50 came to 900 nM. `CC(=O)N[C@H]1CC[C@H](NC(=O)c2cnc3ccc(-c4ccnc(C#N)c4)nc3c2NC(C)C)CC1` [Example 152, N-((1r,4r)-4-acetamidocyclohexyl)-6-(2-cyanopyridin-4-yl)-4-(isopropylamino)-1,5-naphthyridine-3-carboxamide]: the half-inhibitory concentration (IC50) was found to be 78 nM.

For `CC(C)Nc1c(C(=O)NCCc2c[nH]cn2)cnc2ccc(-c3cn[nH]c3)cc12` [Example 102, N-(2-(1H-imidazol-4-yl)ethyl)-4-(isopropylamino)-6-(1H-pyrazol-4-yl)quinoline-3-carboxamide], the IC50 was 23 nM. The figure for `CC(C)Nc1c(C(=O)NCCC(=O)N2CCCC2)cnc2ccc(-c3cn[nH]c3)cc12` [Example 50, 4-(isopropylamino)-N-(3-oxo-3-(pyrrolidin-1-yl)propyl)-6-(1H-pyrazol-4-yl)quinoline-3-carboxamide] is 32.7 nM; for `CCNc1c(C(=O)NC[C@@H](F)C(C)(C)O)cnc2ccc(-c3cncs3)cc12` [Example 28, (R)-4-(ethylamino)-N-(2-fluoro-3-hydroxy-3-methylbutyl)-6-(thiazol-5-yl)quinoline-3-carboxamide] it is 81.2 nM; for `CC(C)Nc1c(C(=O)NCC(=O)N2CCOCC2)cnc2ccc(-c3cn[nH]c3)cc12` [Example 90, 4-(isopropylamino)-N-(2-morpholino-2-oxoethyl)-6-(1H-pyrazol-4-yl)quinoline-3-carboxamide] it is 34.4 nM. The figure for `CC(C)Nc1c(C(=O)NCCC2CC2)cnc2ccc(-c3cncc(C#N)c3)nc12` [Example 151, 6-(5-cyanopyridin-3-yl)-N-(2-cyclopropylethyl)-4-(isopropylamino)-1,5-naphthyridine-3-carboxamide] is 1280 nM.

Turning to `CCNc1c(C(=O)NCCC(C)(C)O)cnc2ccc(-c3cncs3)cc12` [Example 37, 4-(ethylamino)-N-(3-hydroxy-3-methylbutyl)-6-(thiazol-5-yl)quinoline-3-carboxamide], the IC50 was found to be 110 nM. For `CC(C)Nc1c(C(=O)Nc2ccc(N3CCOCC3)nc2)cnc2ccc(-c3cn[nH]c3)cc12` [Example 100, 4-(isopropylamino)-N-(6-morpholinopyridin-3-yl)-6-(1H-pyrazol-4-yl)quinoline-3-carboxamide], the IC50 was determined as 4.5 nM. Regarding `CC(C)(O)CCNC(=O)c1cnc2ccc(-c3cncs3)cc2c1NC1COC1` [Example 41, N-(3-hydroxy-3-methylbutyl)-4-(oxetan-3-ylamino)-6-(thiazol-5-yl)quinoline-3-carboxamide], the IC50 is 210 nM. Consider `CC(C)Nc1c(C(=O)NC2CCN(S(=O)(=O)CCC(F)(F)F)CC2)cnc2ccc(-c3cn[nH]c3)cc12` [Example 89, 4-(isopropylamino)-6-(1H-pyrazol-4-yl)-N-(1-((3,3,3-trifluoropropyl)sulfonyl)piperidin-4-yl)quinoline-3-carboxamide], for which the IC50 worked out at 32.8 nM. For `CNc1c(C(N)=O)cnc2ccc(-c3cn[nH]c3)cc12` [Example 108, 4-(methylamino)-6-(1H-pyrazol-4-yl)quinoline-3-carboxamide], the IC50 was found to be 554 nM. The figure for `CC(C)CCc1nc(-c2cnc3ccc(-c4cn[nH]c4)cc3c2NC(C)C)n[nH]1` [Example 126, 3-(5-isopentyl-1H-1,2,4-triazol-3-yl)-N-isopropyl-6-(1H-pyrazol-4-yl)quinolin-4-amine] is 34.4 nM; for `CC(C)(O)CCNC(=O)c1cnc2ccc(-c3cn[nH]c3)cc2c1NC1COC1` [Example 40, N-(3-hydroxy-3-methylbutyl)-4-(oxetan-3-ylamino)-6-(1H-pyrazol-4-yl)quinoline-3-carboxamide] it is 33.5 nM; for `CC(O)CNc1c(C(=O)NC[C@@H](F)C(C)(C)O)cnc2ccc(-c3cncs3)cc12` (stereo partly drawn) [Example 32, N—((R)-2-fluoro-3-hydroxy-3-methylbutyl)-4-((2-hydroxypropyl)amino)-6-(thiazol-5-yl)quinoline-3-carboxamide] it is 116 nM. Take `CC(C)Nc1c(C(=O)NCCC(=O)N(C)C)cnc2ccc(-c3cn[nH]c3)cc12` [Example 49, N-(3-(dimethylamino)-3-oxopropyl)-4-(isopropylamino)-6-(1H-pyrazol-4-yl)quinoline-3-carboxamide]: the concentration for half-maximal inhibition (IC50) stood at 29.8 nM. Turning to `CC(C)Nc1c(C(=O)NC[C@@H](F)C(C)(C)O)cnc2ccc(-c3cncnc3)cc12` [Example 5, (R)—N-(2-fluoro-3-hydroxy-3-methylbutyl)-4-(isopropylamino)-6-(pyrimidin-5-yl)quinoline-3-carboxamide], the IC50 stood at 31.7 nM.
